Measurements: US7960380B2, “Non-anilinic derivatives of isothiazol-3(2H)-one 1,1-dioxides as liver X receptor modulators” (AstraZeneca AB, priority 2005, dated 2011)
pEC50: −log10 of the molar value.

Legend:
[1] = molecular target: T1, human LXRalpha ligand binding domain (GAL4 fusion) (Homo sapiens, UniProt Q13133); assay: Transactivation (reporter gene) assay in U2/OS cells (LXRalpha); type: cell-based; conditions: LXRα, GAL4-LXR LBD luciferase reporter
T1 construct: human LXRalpha (amino acid 205-447); expressed in transfected cells; host or cells: U2/OS osteosarcoma cells (electroporated with pSGGAL-LXRalpha)
T1 sequence (Q13133 205-447): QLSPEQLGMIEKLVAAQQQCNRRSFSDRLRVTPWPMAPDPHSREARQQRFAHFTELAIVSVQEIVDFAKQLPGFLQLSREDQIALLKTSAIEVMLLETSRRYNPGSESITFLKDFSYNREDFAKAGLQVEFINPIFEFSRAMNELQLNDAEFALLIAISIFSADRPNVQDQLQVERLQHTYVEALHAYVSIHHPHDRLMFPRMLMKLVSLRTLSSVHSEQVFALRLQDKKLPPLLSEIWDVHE
Procedure: Expression vectors were prepared by inserting the ligand binding domain cDNA (complementary DNA) of human LXRalpha (amino acid 205-447) and LXRbeta (amino acid 216-461) in frame with, 3′ to the yeast GAL4 transcription factor DNA binding domain and the nuclear localization signal from the T-antigen of Polyoma Virus in the eucaryotic expression vector pSG5 (Stratagene). The resulting expression vectors pSGGAL-LXRalpha and pSGGAL-LXRbeta were used in cotransfection experiments together with the pGL3 luciferase reporter plasmid containing a minimal SV40 promoter (Promega) and five copies of the UAS GAL4 recognition site. 2.5 μg pSGGAL-LXRalpha or beta were mixed with 25 μg pGL3 5×UAS and 22.5 μg pBluscript (Stratagene) in 0.95 mL ice cold PBS containing approx. 4-9 milj. U2/OS osteosarcoma cells. After a five minute incubation on ice the cell/DNA mixture was electroporated in 0.4 cm cuvettes at 960 μF, 230 V using a BioRad electroporator and diluted to 0.32 milj cells/mL in complete DMEM [Dulbecco's Modified Eagle Medium w/o phenol red, (Gibco 11880-028) including 10% FBS (Foetal Bovine Serum), 1% PEST (Penicillin Streptomycin), 20 mM Hepes, 2 mM L-Glutamine and 0.36% Glucose Gibco 31966-021] medium. […] Luciferase activity was measured as Luminescence in the Wallac Victor reader after 15 min. incubation at room temperature. […]

[2] = molecular target: T2, human LXRalpha Ligand Binding Domain (amino acid 205-447) (Homo sapiens, UniProt Q13133); assay: Co-activator recruitment assay (LXRalpha); type: biochemical; conditions: LXRα; SRC-1 peptide recruitment, time-resolved fluorescence; read-out: EC50 for LXRα in the coactivator recruitment assay
T2 construct: human LXRalpha (amino acid 205-447); made in house; host or cells: E. coli
T2 sequence (Q13133 205-447): T1 sequence (Q13133 205-447)
From the text: The Ligand Binding Domain (LBD) of human LXRalpha (amino acid 205-447) and LXRbeta (amino acid 216-461) was produced by recombinant techniques in E coli. A fragment of the human Steroid Receptor Co-Activator-1 (SRC-1) was produced as a synthetic peptide. An anti-6×His-antibody coupled with Europium (Eu^3+) was used to recognize the His-tag on the LXR-LBD and Allophycocyanin (APC) coupled to streptavidin was used to recognize the biotinylated SRC-1. Agonist binding to LXRalpha or LXRbeta enhances the affinity of LXR towards SRC-1 and thereby brings Eu^3+ and APC in close proximity. Eu^3+ is excited at 337 nm and emitts light at 620 nm. This emission, when in close proximity, excites APC to emit light at 665 nm.
Compounds (10 mM) in DMSO were diluted (1/3) in DMSO in 10 concentrations. This dilution plates were further diluted in buffer {20 mM [Tris(hydroxymethyl)aminomethane] pH 7.5, 0.125% CHAPS {3-[(3-Cholamidopropyl)dimethylammonio]-1-propanesulfonate}, 2 mM DTT (Dithiothreitol) and 0.05% BSA (Bovine Serum Albumin)} in order to reduce DMSO concentration, 0.5 μl to 13.5 μl. To this, 6 μl assay mix was added, giving an maximal assay concentration of 83 μM, and the plates (384-well V-groove plates) were incubated at room temperature for 60 to 80 min. […] Time-resolved fluorescence readings were done in a Wallac Victor reader at 665 nm followed by reading at 615 nm. […]

**Q.** With `O=C1C(NCCCCc2ccccc2)=C(c2ccccc2)S(=O)(=O)N1C1CCCC1` [Example 2, 2-Cyclopentyl-5-phenyl-4-[(4-phenylbutyl)amino]isothiazol-3(2H)-one 1,1-dioxide] as the compound, how does the pEC50 [1] read?
**A.** The pEC50 was 5.87.

**Q.** `CCCCCCNC1=C(c2ccccc2)S(=O)(=O)N(CCCC)C1=O` [Example 6, 2-Butyl-4-(hexylamino)-5-phenylisothiazol-3(2H)-one 1,1-dioxide] was tested. Which pEC50 [2] did it give?
**A.** Its pEC50 is 6.24.

**Q.** With `CCCCN1C(=O)C(NCCCOc2cccc(NC(C)=O)c2)=C(c2ccccc2)S1(=O)=O` [Example 7, N-(3-{3-[(2-Butyl-1,1-dioxido-3-oxo-5-phenyl-2,3-dihydroisothiazol-4-yl)amino]propoxy}phenyl)acetamide] as the compound, how does the pEC50 [1] read?
**A.** The pEC50 was 6.57.

**Q.** With `CC(C)N1C(=O)C(NC2CCN(CCC#N)CC2)=C(c2ccccc2)S1(=O)=O` [Example 10, 3-{4-[(2-Isopropyl-1,1-dioxido-3-oxo-5-phenyl-2,3-dihydroisothiazol-4-yl)amino]piperidin-1-yl}propanenitrile] as the compound, how does the pEC50 [2] read?
**A.** The pEC50 was 5.85.
